Results taken from patent publication US4786651A, “Treatment of cutaneous hyperproliferative dermatoses with manoalide” (Allergan, Inc., priority 1986, dated 1988).

Legend:
[1] = tested on: ODC; conditions: tape-stripped mouse epidermis; M. Connor and N. Lowe 1983; cited from earlier work
[2] = tested on: humans; conditions: cited from earlier work
[3] = tested on: ornithine decarboxylase (ODC); test: Tape-stripped epidermal ODC activity in female hairless mice (In Vivo Assay); design: species or system mouse (female hairless mice)
Description: (§1) Tape-stripping mouse epidermis is quick and convenient method of inducing ODC activity that avoids the necessity of handling carcinogens. M. Connor and N. Lowe (J. Invest. Dermatol 43, 5174, 1983) have studied the ability of retinoids to inhibit ODC. […] In vitro methods have also been useful in determining the anti-hyperproliferative activity of drugs. C. Marcelo and J. Tomich (J. Invest. Dermatol. 81, 64s, 1983) have shown that neonatal mouse keratinocyte cultures can be used to identify drugs that inhibit DNA synthesis. More recently, R. Weiss, Eichner, R. and Sunn, T. T, J. Cell Biol., 98: 1397-1406, (1984) have shown that epidermal cultures are in fact, a model of epidermal hyperproliferation and therefore a good model for testing drugs that inhibit hyperporliferation.
Female hairless mice were tape-stripped and ODC activity determined according to the method of M. Connor and N. Lowe (J. Invest. Dermatol. 43, 5174, 1983).
**50 mg/kg; IP, 30 min before tapestripping

[4] = tested on: keratinocytes; test: Inhibition of DNA synthesis in neonatal mouse keratinocyte cultures (3H-thymidine; In Vitro Assay); type: cell-based, mouse (neonatal balb/c); conditions: daily drug for three days; FIG. 2
Description: as §1
Keratinocytes from 1-2 day old neonatal balb/c mice were used. Cells were plated in 35 mm culture dishes in M199 medium containing 10% FCS and incubated at 37° C. in 5% CO2. Cells were allowed to reach confluency at which time 0.01, 0.1, 1.0, 10 and 20 μM manoalide was added in DMSO. Fresh media and drug were added each day to culture for three days. On the fourth day cells were pulsed with ^3 H-thymidine (1 µCi/ml) to determine how much manoalide inhibited DNA syntheses (CPM/μg DNA).

CC1=C(/C=C/C(C)=C/C=C/C(C)=C\C(=O)O)C(C)(C)CCC1 [13-cis retinoic acid]
inhibition of ODC [1]: active at inhibiting ODC | therapeutic activity in humans [2]: therapeutically active in humans

CC1=C(/C=C/C(C)=C/C=C/C(C)=C/C(=O)O)C(C)(C)CCC1 [Trans-retinoic acid]
inhibition of ODC [1]: active at inhibiting ODC | therapeutic activity in humans [2]: therapeutically active in humans

CC1=C(CC/C(C)=C/CCC2=CCC(C3=CC(=O)OC3O)OC2O)C(C)(C)CCC1 (stereo not shown) [Manoalide]
% Inhibition (ODC) ([3]; 50 mg/kg, IP, 30 min before tapestripping, p < .05): 54% | ODC ([3]; 50 mg/kg, IP, 30 min before tapestripping, vehicle (soybean oil) 6.1 ± 1.2): 2.8 ± 0.6 nmoles ^14 CO2 (mg protein/mg protein/hr) | inhibition of tape-stripped ODC after systemic administration ([3]; systemic administration): can also inhibit tape-stripped ODC | inhibition of keratinocyte DNA synthesis [4]: inhibit keratinocyte DNA synthesis in a dose related fashion

CCOC(=O)/C=C(C)/C=C/C=C(C)/C=C/c1c(C)cc(OC)c(C)c1C [etretinate]
inhibition of ODC [1]: active at inhibiting ODC | therapeutic activity in humans [2]: therapeutically active in humans
